Test results as given in patent publication US20080194585A1, “Fungicidal Pyrazine Derivatives” (priority 2005, published 2008).
Marks after values point to notes of the source that are not given here.

Columns and labels:
Plasmopara viticola = experiment: Test D: grape downy mildew, spray after inoculation of grape seedlings; assay type: in vivo
From the text: Upon removal, disease ratings were made. […] A dash (-) indicates no test results.

Phytophthora infestans = experiment: whole plant or invertebrate; assay type: in vivo
fusarium graminearium = experiment: Test I: wheat head scab, preventive spray on wheat seedlings; details: 200 ppm
Protocol: (the causal agent of wheat head scab) and incubated in a saturated atmosphere at 20° C. for 72 h, and then moved to a growth chamber at 22° C. for 5 days, after which disease ratings were made.

[1] = test system: Puccinia recondita f. sp. tritici; experiment: Test K: wheat leaf rust, preventive spray on wheat seedlings
Botrytis cinerea = experiment: Test E: tomato botrytis, preventive spray on tomato seedlings
Septoria nodorum = experiment: Test H: wheat glum blotch, preventive spray on wheat seedlings
Protocol: (the causal agent of wheat glum blotch) and incubated in a saturated atmosphere at 20° C. for 48 h, and then moved to a growth chamber at 22° C. for 5 days, after which disease ratings were made.

[2] = test system: Erysiphe graminis f. sp. tritici; experiment: Test L: wheat powdery mildew, preventive spray on wheat seedlings
Sclerotinia sclerotiorum = experiment: Test C: cucumber white mold, preventive spray on cucumber seedlings
Pythium aphanidermatum = experiment: Test A: bluegrass pythium blight, preventive spray on bluegrass seedlings
Rhizoctonia oryzae = experiment: Test G: turf brown patch, preventive spray on creeping bent grass seedlings
Protocol: (the causal agent of turf brown patch) and incubated in a saturated atmosphere at 27° C. for 24 h, and then moved to a growth chamber at 27° C. for 5 days, after which disease ratings were made.

[3] = test system: Colletotrichum orbiculare; experiment: Test B: cucumber Colletotrichum anthracnose, preventive spray on cucumber seedlings
Septoria tritici = experiment: Test J: wheat leaf blotch, preventive spray on wheat seedlings; assay type: in vivo
From the text: A dash (-) indicates no test results.

[4] = 40 ppm (marked *), 100 = 100% disease control, 0 = no control
[5] = 200 ppm, 100 = 100% disease control, 0 = no control

SMILES | Test D disease control rating (Plasmopara viticola; [4]) | Test F disease control rating (Phytophthora infestans; [4]) | Test J disease control rating (Septoria tritici; [4]) | Test K disease control rating [1, 4] | Test E disease control rating (Botrytis cinerea; [4]) | Test H disease control rating (Septoria nodorum; [4]) | Test L disease control rating [2, 4] | Test C disease control rating (Sclerotinia sclerotiorum; [4]) | Test A disease control rating (Pythium aphanidermatum; [4]) | Test G disease control rating (Rhizoctonia oryzae; [4]) | Test B disease control rating [3, 4] | Test D disease control rating (Plasmopara viticola; [5]) [%] | Test F disease control rating (Phytophthora infestans; [5]) [%] | Test J disease control rating (Septoria tritici; [5]) [%] | Test K disease control rating [1, 5] [%] | Test E disease control rating (Botrytis cinerea; [5]) [%] | Test H disease control rating (Septoria nodorum; [5]) [%] | Test L disease control rating [2, 5] [%] | Test C disease control rating (Sclerotinia sclerotiorum; [5]) [%] | Test A disease control rating (Pythium aphanidermatum; [5]) [%] | also measured
CC(C)Cn1c(-c2cccc(Cl)c2Cl)c(Cl)nc(-n2cncn2)c1=O [compound 39] |  |  |  |  |  |  |  |  |  |  |  |  |  |  |  |  |  |  |  |  | Test D disease control rating (Plasmopara viticola; 200 ppm): 0%; Test F disease control rating (Phytophthora infestans; 200 ppm): 0%; Test I disease control rating (fusarium graminearium): 0%; Test K disease control rating ([1]; 200 ppm): 67%; Test E disease control rating (Botrytis cinerea; 200 ppm): 99%; Test H disease control rating (Septoria nodorum; 200 ppm): 89%; Test L disease control rating ([2]; 200 ppm): 0%; Test C disease control rating (Sclerotinia sclerotiorum; 200 ppm): 0%; Test A disease control rating (Pythium aphanidermatum; 200 ppm): 0%; Test G disease control rating (Rhizoctonia oryzae; 200 ppm): 0%; Test B disease control rating ([3]; 200 ppm): 0%
Cc1cccc(-c2c(Cl)nc(-n3cccn3)c(=O)n2CC(C)C)c1 [compound 248] |  |  |  |  |  |  |  |  |  |  |  |  |  |  |  |  |  |  |  |  | Test D disease control rating (Plasmopara viticola; 40 ppm (*)): 0* %; Test F disease control rating (Phytophthora infestans; 40 ppm (*)): 0* %; Test J disease control rating (Septoria tritici; 40 ppm (*)): 44* %; Test K disease control rating ([1]; 40 ppm (*)): 0* %; Test E disease control rating (Botrytis cinerea; 40 ppm (*)): 66* %; Test H disease control rating (Septoria nodorum; 40 ppm (*)): 0* %; Test L disease control rating ([2]; 40 ppm (*)): 0* %; Test C disease control rating (Sclerotinia sclerotiorum; 40 ppm (*)): 0* %; Test A disease control rating (Pythium aphanidermatum; 40 ppm (*)): 0* %; Test G disease control rating (Rhizoctonia oryzae; 40 ppm (*)): 0* %; Test B disease control rating ([3]; 40 ppm (*)): 0* %
CC(C)Cn1c(-c2cccc(C#N)c2)c(Cl)nc(-n2cncn2)c1=O [compound 249] | 0* % | 0* % | 26* % | 0* % | 0* % | 0* % | 0* % | 0* % | 0* % | 0* % | 0* % |  |  |  |  |  |  |  |  |  | 
CC(C)Cn1c(-c2cccc(C#N)c2)c(Cl)nc(-n2cccn2)c1=O [compound 250] | 0* % | 0* % | 30* % | 0* % | 0* % | 0* % | 0* % | 0* % | 0* % | 0* % | 0* % |  |  |  |  |  |  |  |  |  | 
CC(C)Cn1c(-c2cccc3c2OCO3)c(Cl)nc(-n2cccn2)c1=O [compound 251] |  |  |  |  |  |  |  |  |  |  |  | 0 | 0 | 97 | 17 | 99 | 82 | 0 | 0 | 0 | Test G disease control rating (Rhizoctonia oryzae; [5]): 21%; Test B disease control rating [3, 5]: 0%
CC(C)Cn1c(-c2ccc3c(c2)OC(F)(F)O3)c(Cl)nc(-n2cccn2)c1=O [compound 252] |  |  |  |  |  |  |  |  |  |  |  | 0 | 0 | 53 | 0 | 0 | 0 | 0 | 0 | 0 | Test G disease control rating (Rhizoctonia oryzae; [5]): 0%; Test B disease control rating [3, 5]: 0%
CC(C)Cn1c(-c2cc3c(cc2Cl)OCO3)c(Cl)nc(-n2cccn2)c1=O [compound 253] |  |  |  |  |  |  |  |  |  |  |  | 0 | 0 | 66 | 0 | 0 | 0 | 0 | 0 | 0 | Test G disease control rating (Rhizoctonia oryzae; [5]): 0%; Test B disease control rating [3, 5]: 0%
Cc1cc(C)c(-c2c(Cl)nc(-n3cccn3)c(=O)n2CC(C)C)c(C)c1 [compound 254] | 0* % | 0* % | 99* % | 59* % | 94* % | 0* % | 54* % | 0* % | 0* % | 41* % | 0* % |  |  |  |  |  |  |  |  |  | 
